27 compounds from US20240043427A1 (Gilead Sciences, Inc., priority 2020, published 2024) can be followed below.

Structures are written as SMILES.

Usually EC50 stands for the concentration at which the effect is half-maximal. A higher EC50 goes with lower potency in that assay. By IC50 is commonly meant the midpoint of a concentration-inhibition curve. Low readings indicate higher potency, high ones lower potency.

Experiment [1] has as its target T1, CD73 (Homo sapiens (Human), UniProt P21589). Nature of the experiment: MDA-MB-231 Cell Based CD73 Activity Assay (DMEM). The conditions noted are these: MDA-MB-231-GFP cells, DMEM medium with 10% human plasma, 200 uM AMP.
The target of experiment [2] is T1, CD73. The class given is biochemical. Conditions: 1 mM NaH2PO4 in enzyme buffer, CD73 0.3 nM, AMP 15 uM.

T1 sequence (P21589 27-574): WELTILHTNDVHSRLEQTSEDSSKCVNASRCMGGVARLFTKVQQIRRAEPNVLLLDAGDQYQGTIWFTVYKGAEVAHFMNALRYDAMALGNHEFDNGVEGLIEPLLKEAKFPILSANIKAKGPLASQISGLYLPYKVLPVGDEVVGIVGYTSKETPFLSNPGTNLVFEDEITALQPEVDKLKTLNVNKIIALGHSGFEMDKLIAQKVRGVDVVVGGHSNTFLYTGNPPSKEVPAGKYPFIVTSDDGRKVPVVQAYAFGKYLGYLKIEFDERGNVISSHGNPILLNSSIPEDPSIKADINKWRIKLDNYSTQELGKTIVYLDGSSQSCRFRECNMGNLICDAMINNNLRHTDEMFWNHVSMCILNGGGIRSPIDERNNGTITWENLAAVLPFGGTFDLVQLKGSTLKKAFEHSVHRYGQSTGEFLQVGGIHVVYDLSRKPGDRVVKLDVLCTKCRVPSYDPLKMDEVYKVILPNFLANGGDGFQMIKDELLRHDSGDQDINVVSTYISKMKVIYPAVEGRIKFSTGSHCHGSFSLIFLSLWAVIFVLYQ

For the compound `N#Cc1c(F)cc([C@H]2C[C@@H]2c2cc(-c3c[nH]c(=O)[nH]c3=O)nn3ccnc23)cc1F` [Example 557, 4-((1S,2S)-2-(6-(2,4-dioxo-1,2,3,4-tetrahydropyrimidin-5-yl)imidazo[1,2-b]pyridazin-8-yl)cyclopropyl)-2,6-difluorobenzonitrile], the EC50 on CD73 [1] amounted to 9.73 nM. This compound had an IC50 on CD73 [2] of 1.71 nM.

On to `N#Cc1ccc([C@H]2C[C@@H]2c2cc(-c3c[nH]c(=O)[nH]c3=O)nn3ccnc23)c(F)c1F` [Example 558, 4-((1S,2S)-2-(6-(2,4-dioxo-1,2,3,4-tetrahydropyrimidin-5-yl)imidazo[1,2-b]pyridazin-8-yl)cyclopropyl)-2,3-difluorobenzonitrile], for which, at CD73 [1], the 50% effective concentration (EC50) turned out to be 20.4 nM. This compound showed an IC50 against CD73 [2] of 2.87 nM.

In the case of `COc1cc([C@H]2C[C@@H]2c2cc(-c3c[nH]c(=O)[nH]c3=O)nn3ccnc23)ccc1C#N` [Example 559, 4-((1S,2S)-2-(6-(2,4-dioxo-1,2,3,4-tetrahydropyrimidin-5-yl)imidazo[1,2-b]pyridazin-8-yl)cyclopropyl)-2-methoxybenzonitrile], the EC50 on CD73 [1] worked out at 7.77 nM. The IC50 on CD73 [2] was 0.97 nM.

`Cc1cc([C@H]2C[C@@H]2c2cc(-c3c[nH]c(=O)[nH]c3=O)nn3ccnc23)ccc1C#N` [Example 560, 4-((1S,2S)-2-(6-(2,4-dioxo-1,2,3,4-tetrahydropyrimidin-5-yl)imidazo[1,2-b]pyridazin-8-yl)cyclopropyl)-2-methylbenzonitrile] returned an EC50 at CD73 [1] of 2.86 nM. This compound also registered an IC50 at CD73 [2] of 0.85 nM.

Turning to `O=c1[nH]cc(-c2cc([C@H]3C[C@@H]3c3ccc(OC(F)F)cc3)c3nccn3n2)c(=O)[nH]1` [Example 561, 5-(8-((1S,2S)-2-(4-(difluoromethoxy)phenyl)cyclopropyl)imidazo[1,2-b]pyridazin-6-yl)pyrimidine-2,4(1H,3H)-dione], on CD73 [1], the EC50 amounted to 3.06 nM. Moreover, half-maximal inhibition on CD73 [2] (IC50) was put at 0.71 nM.

Compound `O=c1[nH]cc(-c2cc([C@H]3C[C@@H]3c3ccc4nc(C(F)(F)F)sc4c3)c3nccn3n2)c(=O)[nH]1` [Example 562, 5-(8-((1S,2S)-2-(2-(trifluoromethyl)benzo[d]thiazol-6-yl)cyclopropyl)imidazo[1,2-b]pyridazin-6-yl)pyrimidine-2,4(1H,3H)-dione] displayed an EC50 at CD73 [1] of 2.64 nM. On CD73 [2], this compound displayed an IC50 of 0.97 nM.

Consider `N#Cc1ccc([C@H]2C[C@@H]2c2cc(-c3c[nH]c(=O)[nH]c3=O)nn3ccnc23)cc1C1CC1` [Example 563, 2-cyclopropyl-4-((1S,2S)-2-(6-(2,4-dioxo-1,2,3,4-tetrahydropyrimidin-5-yl)imidazo[1,2-b]pyridazin-8-yl)cyclopropyl)benzonitrile], for which the EC50 at CD73 [1] was 10.6 nM. This compound also yielded an IC50 against CD73 [2] of 0.66 nM.

On CD73 [1], `N#Cc1cc(F)c([C@H]2C[C@@H]2c2cc(-c3c[nH]c(=O)[nH]c3=O)nn3ccnc23)cc1F` [Example 565, 4-((1S,2S)-2-(6-(2,4-dioxo-1,2,3,4-tetrahydropyrimidin-5-yl)imidazo[1,2-b]pyridazin-8-yl)cyclopropyl)-2,5-difluorobenzonitrile] gave a concentration giving a half-maximal response (EC50) of 9.24 nM. Further, the midpoint of inhibition against CD73 [2], the IC50, lay at 1.98 nM.

The compound `N#Cc1ccc([C@H]2C[C@@H]2c2cc(-c3c[nH]c(=O)[nH]c3=O)nn3ccnc23)cc1Cl` [Example 566, 2-chloro-4-((1S,2S)-2-(6-(2,4-dioxo-1,2,3,4-tetrahydropyrimidin-5-yl)imidazo[1,2-b]pyridazin-8-yl)cyclopropyl)benzonitrile] displayed an EC50 on CD73 [1] of 4.46 nM. Also, half-maximal inhibition against CD73 [2] (IC50) required 0.78 nM.

In turn, `Cc1cc([C@H]2C[C@@H]2c2cc(-c3c[nH]c(=O)[nH]c3=O)nn3ccnc23)cc(F)c1C#N` [Example 567, 4-((1S,2S)-2-(6-(2,4-dioxo-1,2,3,4-tetrahydropyrimidin-5-yl)imidazo[1,2-b]pyridazin-8-yl)cyclopropyl)-2-fluoro-6-methylbenzonitrile] came in with an EC50 at CD73 [1] of 7.93 nM. At CD73 [2], this compound yielded an IC50 of 1.73 nM.

`O=c1[nH]cc(-c2cc(N3CCC4(CCC4)C3)c3nccn3n2)c(=O)[nH]1` [Example 569, 5-(8-(6-azaspiro[3.4]octan-6-yl)imidazo[1,2-b]pyridazin-6-yl)pyrimidine-2,4(1H,3H)-dione]: the EC50 on CD73 [1] is 11.2 nM. The compound further had a half-maximal inhibitory concentration (IC50) at CD73 [2] of 6.66 nM.

As to `O=c1[nH]cc(-c2cc(N3CCC4(C3)CC(F)(F)C4)c3nccn3n2)c(=O)[nH]1` [Example 571, 5-(8-(2,2-difluoro-6-azaspiro[3.4]octan-6-yl)imidazo[1,2-b]pyridazin-6-yl)pyrimidine-2,4(1H,3H)-dione], the midpoint of the response at CD73 [1], the EC50, lay at 62.3 nM. In addition, at CD73 [2], 30.4 nM corresponded to half-maximal inhibition (IC50).

Regarding `COCC1(C)CCN(c2cc(-c3c[nH]c(=O)[nH]c3=O)nn3ccnc23)C1` (stereo not drawn) [Example 572, 5-(8-(3-(methoxymethyl)-3-methylpyrrolidin-1-yl)imidazo[1,2-b]pyridazin-6-yl)pyrimidine-2,4(1H,3H)-dione], the EC50 on CD73 [1] worked out at 93.9 nM. The compound also displayed an IC50 against CD73 [2] of 25.3 nM.

On to `N#Cc1cc(F)c([C@H]2C[C@@H]2c2cc(-c3c[nH]c(=O)[nH]c3=O)nn3c(F)cnc23)cc1F` [Example 573, 4-((1S,2S)-2-(6-(2,4-dioxo-1,2,3,4-tetrahydropyrimidin-5-yl)-3-fluoroimidazo[1,2-b]pyridazin-8-yl)cyclopropyl)-2,5-difluorobenzonitrile], for which, at CD73 [1], it took 7.46 nM to reach a half-maximal effect (EC50). This compound also returned an IC50 on CD73 [2] of 1.21 nM.

Take `O=c1[nH]cc(-c2cc(N3CC4CC(C3)C4(F)F)c3nccn3n2)c(=O)[nH]1` [Example 575, 5-(8-(6,6-difluoro-3-azabicyclo[3.1.1]heptan-3-yl)imidazo[1,2-b]pyridazin-6-yl)pyrimidine-2,4(1H,3H)-dione]: the midpoint of the response on CD73 [1], the EC50, lay at 142 nM. On CD73 [2], the IC50 is 57.1 nM.

As for `O=c1[nH]cc(-c2cc(N3CCC(C4CC4)C3)c3nccn3n2)c(=O)[nH]1` (stereo not drawn) [Example 577, 5-(8-(3-cyclopropylpyrrolidin-1-yl)imidazo[1,2-b]pyridazin-6-yl)pyrimidine-2,4(1H,3H)-dione], at CD73 [1], the EC50 stood at 81.2 nM. In addition, the IC50 against CD73 [2] amounted to 19.6 nM.

Regarding `O=c1[nH]cc(-c2cc(N3CCC(C4CC(F)(F)C4)C3)c3nccn3n2)c(=O)[nH]1` (stereo not drawn) [Example 578, 5-(8-(3-(3,3-difluorocyclobutyl)pyrrolidin-1-yl)imidazo[1,2-b]pyridazin-6-yl)pyrimidine-2,4(1H,3H)-dione], at CD73 [1], the 50% effective concentration (EC50) amounted to 1870 nM. On CD73 [2], this compound returned an IC50 of 161 nM.

At CD73 [1], `O=c1[nH]cc(-c2cc([C@H]3C[C@@H]3c3ccc(Cl)cn3)c3ncc(F)n3n2)c(=O)[nH]1` [Example 584, 5-(8-((1S,2S)-2-(5-chloropyridin-2-yl)cyclopropyl)-3-fluoroimidazo[1,2-b]pyridazin-6-yl)pyrimidine-2,4(1H,3H)-dione] gave an EC50 of 2.98 nM. Further, the IC50 on CD73 [2] came out at 0.91 nM.

Consider `O=c1[nH]cc(-c2cc([C@H]3C[C@@H]3c3ccc(Cl)cn3)c3nccn3n2)c(=O)[nH]1` [Example 585, 5-(8-((1S,2S)-2-(5-chloropyridin-2-yl)cyclopropyl)imidazo[1,2-b]pyridazin-6-yl)pyrimidine-2,4(1H,3H)-dione], for which the concentration giving a half-maximal response (EC50) on CD73 [1] stood at 1.9 nM. At CD73 [2], 0.69 nM corresponded to half-maximal inhibition (IC50).

At CD73 [1], `O=c1[nH]cc(-c2cc([C@H]3C[C@@H]3c3ncc(Cl)cc3F)c3nccn3n2)c(=O)[nH]1` [Example 586, 5-(8-((1S,2S)-2-(5-chloro-3-fluoropyridin-2-yl)cyclopropyl)imidazo[1,2-b]pyridazin-6-yl)pyrimidine-2,4(1H,3H)-dione] gave an EC50 of 2.94 nM. The IC50 against CD73 [2] worked out at 0.85 nM.

With `O=c1[nH]cc(-c2cc(N3CCC4(CCC(F)(F)CC4)C3)c3nccn3n2)c(=O)[nH]1` [Example 587, 5-(8-(8,8-difluoro-2-azaspiro[4.5]decan-2-yl)imidazo[1,2-b]pyridazin-6-yl)pyrimidine-2,4(1H,3H)-dione], the EC50 at CD73 [1] amounted to 66.1 nM. On CD73 [2], this compound yielded an IC50 of 23.3 nM.

Compound `O=c1[nH]cc(-c2cc([C@H]3C[C@@H]3c3ncc(Cl)cc3F)c3ncc(F)n3n2)c(=O)[nH]1` [Example 588, 5-(8-((1S,2S)-2-(5-chloro-3-fluoropyridin-2-yl)cyclopropyl)-3-fluoroimidazo[1,2-b]pyridazin-6-yl)pyrimidine-2,4(1H,3H)-dione] came in with an EC50 at CD73 [1] of 2.33 nM. The same compound returned a concentration for half-maximal inhibition (IC50) on CD73 [2] of 0.69 nM.

For `O=c1[nH]cc(-c2cc(N3CCC(Cn4ccnn4)C3)c3nccn3n2)c(=O)[nH]1` (stereo not drawn) [Example 592, 5-(8-(3-((1H-1,2,3-triazol-1-yl)methyl)pyrrolidin-1-yl)imidazo[1,2-b]pyridazin-6-yl)pyrimidine-2,4(1H,3H)-dione], the EC50 on CD73 [1] is 774 nM. For the same compound, half-maximal inhibition against CD73 [2] (IC50) was put at 96.2 nM.

On CD73 [1], `C#CCC1CCN(c2cc(-c3c[nH]c(=O)[nH]c3=O)nn3ccnc23)C1` (stereo not drawn) [Example 593, 5-(8-(3-(prop-2-yn-1-yl)pyrrolidin-1-yl)imidazo[1,2-b]pyridazin-6-yl)pyrimidine-2,4(1H,3H)-dione] displayed an EC50 of 33 nM. This compound returned a 50% inhibitory concentration (IC50) at CD73 [2] of 7.24 nM.

Take `O=c1[nH]cc(-c2cc([C@H]3C[C@@H]3c3ccc4cnn(CC(F)(F)F)c4c3F)c3nccn3n2)c(=O)[nH]1` [Example 594, 5-(8-((1S,2S)-2-(7-fluoro-1-(2,2,2-trifluoroethyl)-1H-indazol-6-yl)cyclopropyl)imidazo[1,2-b]pyridazin-6-yl)pyrimidine-2,4(1H,3H)-dione]: the EC50 at CD73 [1] turned out to be 0.12 nM. Half-maximal inhibition on CD73 [2] (IC50) was put at 0.58 nM.

Compound `O=c1[nH]cc(-c2cc([C@H]3C[C@@H]3c3cc4c(cnn4CC(F)(F)F)cc3F)c3nccn3n2)c(=O)[nH]1` [Example 595, 5-(8-((1S,2S)-2-(5-fluoro-1-(2,2,2-trifluoroethyl)-1H-indazol-6-yl)cyclopropyl)imidazo[1,2-b]pyridazin-6-yl)pyrimidine-2,4(1H,3H)-dione] registered an EC50 at CD73 [1] of 0.52 nM. This compound also came in with an IC50 against CD73 [2] of 1.27 nM.

`O=c1[nH]cc(-c2cc([C@H]3C[C@@H]3c3cc(F)c4cnn(CC(F)(F)F)c4c3)c3nccn3n2)c(=O)[nH]1` [Example 596, 5-(8-((1S,2S)-2-(4-fluoro-1-(2,2,2-trifluoroethyl)-1H-indazol-6-yl)cyclopropyl)imidazo[1,2-b]pyridazin-6-yl)pyrimidine-2,4(1H,3H)-dione] gave an EC50 on CD73 [1] of 0.14 nM. At CD73 [2], the IC50 is 0.7 nM.
